Measurements reported in patent publication US8557286B1, “Method for producing a water-insoluble amorphous or partially amorphous controlled release matrix” (EuroCeltique, S.A., priority 2000, dated 2013).

Test: Release of the active agent in a paddle agitator model according to USP
Assay type: physicochemical
Conditions: total dose of 25 mg; pure caffeine, not retarded, filled in a capsule; FIG. 3
Description: In this context it is once again pointed out that the degree of destructurization into the glass state is decisive for the kinetics of the release of the active agents. […] For comparative purposes, the release of pure caffeine, not retarded and filled in a capsule has been drawn in.

## Cn1c(=O)c2c(ncn2C)n(C)c1=O [caffeine]
  Time of release for the total dose: about 15 minutes
